This is an account of results in patent publication US6670481B2, “Oxiranecarboxylic acids for the treatment of diabetes” (Medicone AG Gesellschaft fur Molekularbiologische …, priority 1997, dated 2003).

Assay type in all cases: in vivo, rat (male Sprague-Dawley)
In series [1] the test system is insulin-resistant rats (after 24 hour fasting). In words: Blood glucose-lowering effect in insulin-resistant (24 hour fasted) rats. To be noted: for (A) Glucose (%), change vs placebo-treated control animals: blood, rats fasted 24 hours, 2 hours after oral administration of 100 μmol/kg, mean of 10 animals; for Superiority compared to the prior art with respect to lowering glucose after fasting: fasting as experimental model of insulin resistance, result in words. The method, then: The compounds of the formula I according to the invention lower the glucose concentration in the blood of rats which have been made insulin-resistant by prolonged fasting.
(§1) What is stated are the changes in per cent of the animals which have been treated with substance, compared to control animals which were treated with placebo, calculated from the mean values of in each case 10 individual values.
(§2) The test animals used were male Sprague-Dawley rats from the SPF breed Ivanovas (Kisslegg, Germany) having a body mass of 255-400 g. The animals were kept in a conventional manner, 4 animals each in cages made of Makrolon (22×38 cm) in a climatized room (21-23 degrees Celsius) with a fixed day/night rhythm (7a.m/7p.m) and a regulated relative atmospheric humidity of 55-60%. The animals received a maintenance diet—Altromin 1320 from Altromin (Lage, Germany)—and water ad libitum.
To determine the effect of the substance on blood glucose, feed was withdrawn 24 hours before the administration of the substance to produce an insulin-resistant condition.
(§3) The animals were divided at random in 5 groups of 10 animals each and marked. The substances were administered to the animals in the form of a neutral, aqueous emulsion (1 part by weight of substance+2 parts by weight of Cremophor EL—an emulsifier from BASF AG, Germany—) in a volume of 10 ml/kg of body weight using a stomach tube.
To determine the glucose in the blood, 50 μl of blood were collected from the retrobulbular venousplexus 2 hours after the administration of the substance, using a glass capillary, from animals which had been fasting for 24 hours, and the blood was deproteinated in ice-cold perchloric acid (0.66 mol/l). After centrifugation, the glucose was determined in the supernatant using enzymatic standard methods.
Enzymatic test with hexokinase/[…], test combination from Boehringer Mannheim, Germany.

Series [2] concerns fed, healthy rats. The series is described as follows: Triglyceride-lowering effect in blood plasma of fed, healthy rats. The settings on record: for (B) Triglycerides (%), change vs placebo-treated control animals: blood plasma, fed healthy rats, oral 100 μmol/kg for 16 days, 24 hours after last administration, mean of 10. The method, then:
as §1, §2, §3
(§4) To determine the parameters triglycerides, cholesterol and the activity of the glutamic-pyruvic transaminase (GPT), blood plasma was used. The blood plasma was obtained as an erythrocyte-free supernatant 15 minutes after venous blood sampling into heparinized Eppendorf reaction vessels by centrifugation (2×2 minutes at 16,000 rpm in an Eppendorf centrifuge).
Enzymatic test with lipase/glycerokinase, test combination from Boehringer Mannheim, Germany.

For series [3], the system named is fed, healthy rats. The series is described as follows: Cholesterol-lowering effect in blood plasma of fed, healthy rats. To be noted: oral 100 μmol/kg for 16 days, 24 hours after last administration, mean of 10. The method, then: as §1, §2, §3, §4
Enzymatic colour test (CHOD-PAP method), test combination from Boehringer Mannheim, Germany.

Series [4] has as its system healthy, fed rats. The series is described as follows: Increase in activity of liver enzyme glutamic-pyruvate transaminase (GPT) in blood plasma. The settings on record: oral equimolar doses for 16 days, 24 hours after last administration.
Excerpt: as §2, §3, §4
Kinetic enzyme test, test combination from Boehringer Mannheim, Germany.

Series [5] deals with healthy, fed rats. In words: Increase of relative weight of the heart (cardiac hypertrophy). To be noted: weight of heart/100 g body weight, oral equimolar doses for 16 days, 24 hours after last administration.
Excerpt: as §2, §3
The animals were killed by decapitation and exsanguination, and the weight of the heart muscle, which had been freed from the right atrium, was determined by weighing and based on 100 g of body. weight.

Series [6] deals with healthy, fed rats. The series is described as follows: Pharmacological safety index. The settings on record: for (C) Safety index (%): lowering of glucose + triglycerides + cholesterol in per cent divided by increase of GPT activity + relative heart weight in per cent, higher = safer; for Safety index compared to the prior art: result in words, from Table 2. The source says:
The higher the index, the greater the safety of the substance.

SMILES strings stand for the structures.

For `CCOC(=O)C1(CCCCCCOc2ccc(OC(F)F)cc2)CO1` (stereo not drawn) [Substance 2], in series [1], the “(A) Glucose (%), change vs placebo-treated control animals” value (“(A) Glucose (%), change” for short) is reported as −27% and the “Superiority compared to the prior art with respect to lowering glucose after fasting” value is reported as “particularly pronounced”. In addition, the “(B) Triglycerides (%), change vs placebo-treated control animals” value (from here on “(B) Triglycerides (%), change”) in the series with fed, healthy rats [2] is reported as −69%. For the same compound, the “(C) Cholesterol (%), change vs placebo-treated control animals” value (“(C) Cholesterol (%), change” below) in the series with fed, healthy rats [3] was −13%. Besides, the “(A) GPT activity (%), increase” value with healthy, fed rats [4] was 5%. Further, the “(B) Relative weight of the heart (%), increase” value in the series with healthy, fed rats [5] is 14%. Further, in the series with healthy, fed rats [6], the “(C) Safety index (%)” value was 5.74% and the “Safety index compared to the prior art” value is “superior to the prior art”.
As for `CCOC(=O)C1(CCCCCOc2ccc(C(C)=O)cc2)CO1` (stereo not drawn) [Substance 4], the “(A) Glucose (%), change” value in series [1] is on record as −7%. The “(B) Triglycerides (%), change” value with fed, healthy rats [2] was −41%. Moreover, the “(C) Cholesterol (%), change” value in the series on fed, healthy rats [3] is −8%. Moreover, in the series with healthy, fed rats [4], the “(A) GPT activity (%), increase” value is recorded as −9%. Moreover, in the series on healthy, fed rats [5], the “(B) Relative weight of the heart (%), increase” value is given as −2%. In the series with healthy, fed rats [6], the “(C) Safety index (%)” value amounted to 56% and the “Safety index compared to the prior art” value was “particularly superior to the prior art”.
For the compound `CCOC(=O)C1(CCCCCOc2ccc(OC(F)F)cc2)CO1` (stereo not drawn) [Substance 3], in series [1], the “(A) Glucose (%), change” value is −27% and the “Superiority compared to the prior art with respect to lowering glucose after fasting” value was “particularly pronounced”. Moreover, the “(B) Triglycerides (%), change” value with fed, healthy rats [2] is recorded as −73%. Also, the “Effect compared to the prior art, taking into account the triglyceride- and cholesterol-lowering effect” value with fed, healthy rats [2] (result in words, from Tab. 1) is given as “superior to the prior art”. In the series with fed, healthy rats [3], the “(C) Cholesterol (%), change” value is recorded as −26%. Besides, the “(A) GPT activity (%), increase” value in the series on healthy, fed rats [4] is reported as 12%. In the series with healthy, fed rats [5], the “(B) Relative weight of the heart (%), increase” value came to 11%. Also, in the series on healthy, fed rats [6], the “(C) Safety index (%)” value was determined as 5.48% and the “Safety index compared to the prior art” value is reported as “superior to the prior art”.
As for `CCOC(=O)C1(CCCCCCOc2ccc(Cl)cc2)CO1` (stereo not drawn) [Substance 1], in series [1], the “(A) Glucose (%), change” value is on record as −18%. In the series with fed, healthy rats [2], the “(B) Triglycerides (%), change” value is listed as −50%. In addition, the “(C) Cholesterol (%), change” value in the series with fed, healthy rats [3] is listed as −15%. Besides, the “(A) GPT activity (%), increase” value in the series on healthy, fed rats [4] amounted to 8%. The “(B) Relative weight of the heart (%), increase” value in the series on healthy, fed rats [5] amounted to 14%. Besides, in the series with healthy, fed rats [6], the “(C) Safety index (%)” value was found to be 3.77%.
